This note sets out measurements from patent US12496353B2, “Synergistic effects between auristatin-based antibody drug conjugates and inhibitors of the PI3K-AKT mTOR pathway” (SEAGEN INC., priority 2010, dated 2025).

Non-standard residues stand in square brackets, D forms with d. Residues, ends and D or L forms follow the SMILES beside them. *: point of attachment. Dolaproine = CO[C@@H]([C@@H]1CCCN1)[C@@H](C)C(=O)O; Dil = CC[C@H](C)[C@H](NC)[C@@H](CC(=O)O)OC; X1 = C[C@@H](N*)[C@@H](O)c1ccccc1; NMeV = CN[C@H](C(=O)O)C(C)C

Data set [1] deals with 786-O cells. As to the kind of experiment: In vitro combination cytotoxicity (Cell Titer Glo, Chou-Talalay CI), 786-O. The data set is classed as cell-based. The following applies: for interaction with the rapalogs temsirolimus, sirolimus, and everolimus / cytotoxicity of the drug alone: 786-O cell line; for interaction with the rapalogs temsirolimus, sirolimus, and everolimus: FIG. 2; for cytotoxicity of the drug alone: single drug; for effect on the cytotoxicity of h1F6-mcF: RCC cell lines (786-O and Caki-2 named in the sentence before). How it is done:
(§1) 786-O cells were cultured in Roswell Park Memorial Institute medium (RPMI) 1640+10% fetal bovine serum (FBS). Caki-1 cells were cultured in McCoy's 5A medium+10% FBS. Caki-2 cells were cultured in McCoy's 5A medium+2% FBS. 786-O, Caki-1, and Caki-2 cells (renal cell carcinoma cell lines) were all cultured at 37° C. with 5% CO2. L540cy cells were cultured in RPMI 1640+20% FBS. L428 cells were cultured in RPMI 1640+10% FBS. L540cy and L428 cell lines are Hodgkin lymphoma cell lines. Karpas-299 cells were cultured in RPMI 1640+10% FBS. The Karpas-299 cell line is an anaplastic large cell lymphoma cell (ALCL) line. HT cells were cultured in RPMI 1640+10% FBS. Raji 4RII cells (clone-11) were a gift from Francisco J. Hernandez-Ilizaliturri and cultured in RPMI 1640+10% FBS. HT and Raji 4RH cell lines are Non-Hodgkin lymphoma cell lines. Jeko-1 cells were cultured in RPMI-1640+10% FBS . Jeko-1 cell lines are mantle cell lymphoma cell lines.
Cells were plated in 100 μL growth media per well into black-sided clear-bottom 96-well plates. Next, 4× concentration working stocks of small molecule inhibitor and antibody drug conjugate were prepared, and then titrated as 2-fold serial dilutions producing 10-point dose curves. For the single drug conditions, 50 μL small molecule inhibitor or ADC or free auristatin was added to each well in quadruplicate with 50 μL of media producing a final volume of 200 μL per well. For the combination conditions, 50 μL small molecule inhibitor and 50 μL ADC or free auristatin dilution were added to the cells (overlaying the dose titrations of each drug: high to low) in quadruplicate producing a final volume of 200 μ, per well. Treated cells were incubated 96 hours at 37° C., 5% CO2. Cytotoxicity was measured by incubating with 100 μL Cell Titer Glo (Promega) solution for 1 hour, and then luminescence was measured on a Fusion HT plate reader (Perkin Elmer). Data was processed with Excel (Microsoft) and GraphPad (Prism) to produce dose response curves and calculate the fraction affected (f a) at each dose concentration. Then CalcuSyn (Biosoft) software was used to determine synergism, additivity, or antagonism for each drug combination using the median-effect equation of Chou-Talalay: D=Dm[fa/(1−fa)]^1/m Median-effect equation
(D) is the dose of the drug. (Dm) is the median-effect dose signifying the potency. This is determined by the x-intercept of the median-effect plot. (fa) is the fraction affected by the dose. (fu) is the fraction unaffected, (1−fa). (m) is an exponent signifying the sigmoidicity (shape) of the dose-effect curve. It is determined by the slope of the median-effect plot. The linear correlation coefficient “r” should be greater than or equal to 0.90. The drug concentration units are arbitrary.
Combination index (CI) values <0.9 indicate synergism, CI values 0.9-1.1 indicate additivity, and CI values >1.1 indicate antagonism.
Each combination study was repeated on separate days a total of n=3 times unless otherwise noted, and the mean combination index value reported with standard error of the mean (sem).
In general terms: Cellular ATP, detected with luciferase, serves as a proxy for viable cell number.

The test system of data set [2] is Caki-1 cells. As to the kind of experiment: In vitro combination cytotoxicity (Cell Titer Glo, Chou-Talalay CI), Caki-1. The data set is classed as cell-based. The settings on record: Caki-1 cell line; FIG. 3. How it is done:
as §1
(§2) Cells were plated in 100 μL growth media per well into black-sided clear-bottom 96-well plates. […] Cytotoxicity was measured by incubating with 100 μL Cell Titer Glo (Promega) solution for 1 hour, and then luminescence was measured on a Fusion HT plate reader (Perkin Elmer). […]
(§3) (D) is the dose of the drug. […] This is determined by the x-intercept of the median-effect plot. […] It is determined by the slope of the median-effect plot. […]

The subject of data set [3] is L428 cells. In words: In vivo combination of cAC10-vcE and everolimus, B-like Hodgkin lymphoma murine xenograft. The following applies: for complete responses: L428 xenograft, day 61, groups of 10 mice, cAC10-vcE 1.0 mg/kg q4dx4 ip, everolimus 15 mg/kg po. More on the design: species or system NOD-SCID-gamma mice. As to the method: To test combination treatments in B-like Hodgkin lymphoma in vivo, a murine xenograft model was used. L428 cells were implanted into NOD-SCID-gamma mice (The Jackson Laboratory) to generate tumors. Tumors were grown to an average of 90 mm 3 , then sorted into groups of 10 mice. Mice were not treated, treated with everolimus (15 mg/kg), treated with cAC10 (1 mg/kg), treated with cAC10-vcE (1.0 mg/kg), treated with cAC10 and everolimus, or treated with cAC10-vcE and everolimus. The cAC10-vcE and cAC10 was administered q4dx4 ip. The everolimus was administered ql dx14 po.

Data set [4] deals with Caki-2 cells. As to the kind of experiment: In vitro combination cytotoxicity (Cell Titer Glo, Chou-Talalay CI), Caki-2. Type of data set: cell-based. The settings on record: Caki-2 cell line; single drug. As to the method: as §1, §2, §3
Data set [5] has as its system L428 cells. In words: In vivo combination of cAC10-vcE and temsirolimus, B-like Hodgkin lymphoma murine xenograft. The arrangement: species or system NOD-SCID-gamma mice. The following applies: for Median Days to Triple Volume: L428 xenograft, cAC10-vcE 1.0 mg/kg q4dx4 ip, temsirolimus 20 mg/kg ip. As to the method:
To test combination treatments in B-like Hodgkin lymphoma in vivo, a murine xenograft model was used. L428 cells were implanted into NOD-SCID-gamma mice (The Jackson Laboratory) to generate tumors. Tumors were grown to an average of 90 mm^3, then sorted into groups of 7 mice. Mice were not treated, treated with temsirolimus (20 mg/kg), treated with cAC10-vcE (1.0 mg/kg), or treated with cAC10-vcE and temsirolimus. The cAC10-vcE was administered q4dx4 ip. The temsirolimus was administered q4dx4 ip or q3dx6 ip. In the combination treatment, the cAC10-vcE was dosed 2 days before temsirolimus. Tumor volume was measured periodically for 120 days post initial dosing. Data was plotted as a Kaplan-Meier plot showing rate of tumor tripling. P-values were calculated using the Log-rank test to confirm statistical significance.

The subject of data set [6] is HT cells. In words: In vitro combination cytotoxicity (Cell Titer Glo, Chou-Talalay CI), HT. Type of data set: cell-based. The following applies: HT cell line. As to the method:
as §1, §2, §3

For `CC[C@H](C)[C@@H]([C@@H](CC(=O)N1CCC[C@H]1[C@H](OC)[C@@H](C)C(=O)N[C@H](C)[C@@H](O)c1ccccc1)OC)N(C)C(=O)[C@@H](NC(=O)[C@@H](NC)C(C)C)C(C)C` [MMAE, monomethyl auristatin E] (H-[NMeV]V[Dil][Dolaproine]-X1), the “interaction with the rapalogs temsirolimus, sirolimus, and everolimus” value in data set [1] was “synergistic”. In addition, the “interaction with the rapalogs temsirolimus and sirolimus” value in data set [2] is listed as “synergistic”.

In the case of `CO[C@H]1C[C@@H]2CC[C@@H](C)[C@@](O)(O2)C(=O)C(=O)N2CCCC[C@H]2C(=O)O[C@H]([C@H](C)C[C@@H]2CC[C@@H](OCCO)[C@H](OC)C2)CC(=O)[C@H](C)/C=C(\C)[C@@H](O)[C@@H](OC)C(=O)[C@H](C)C[C@H](C)/C=C/C=C/C=C/1C` [everolimus], the complete responses entry in data set [3] is reported as “no complete responses”.

For the molecule `CO[C@H]1C[C@@H]2CC[C@@H](C)[C@@](O)(O2)C(=O)C(=O)N2CCCC[C@H]2C(=O)O[C@H]([C@H](C)C[C@@H]2CC[C@@H](O)[C@H](OC)C2)CC(=O)[C@H](C)/C=C(\C)[C@@H](O)[C@@H](OC)C(=O)[C@H](C)C[C@H](C)/C=C/C=C/C=C/1C` [sirolimus, rapamycin], in data set [1], the “cytotoxicity of the drug alone” value is “not potent cytotoxic drugs” and the “effect on the cytotoxicity of h1F6-mcF” value was “potentiate the cytotoxicity of h1F6-mcF”. Besides, the “cytotoxicity of the drug alone” value in data set [4] is recorded as “not potent cytotoxic drugs except in the Caki-2 cell line grown in media with low FBS”.

As for `CO[C@H]1C[C@@H]2CC[C@@H](C)[C@@](O)(O2)C(=O)C(=O)N2CCCC[C@H]2C(=O)O[C@H]([C@H](C)C[C@@H]2CC[C@@H](OC(=O)C(C)(CO)CO)[C@H](OC)C2)CC(=O)[C@H](C)/C=C(\C)[C@@H](O)[C@@H](OC)C(=O)[C@H](C)C[C@H](C)/C=C/C=C/C=C/1C` [temsirolimus], in data set [1], the “cytotoxicity of the drug alone” value is “not potent cytotoxic drugs” and the “effect on the cytotoxicity of h1F6-mcF” value is “potentiate the cytotoxicity of h1F6-mcF”. Further, the “cytotoxicity of the drug alone” value in data set [4] is on record as “not potent cytotoxic drugs except in the Caki-2 cell line grown in media with low FBS”. The “Median Days to Triple Volume” value in data set [5] stood at 56 days.

For “cAC10-vcE: vc-MMAE (mc-vc-MMAE) antibody drug conjugate wherein the antibody is a chimeric AC10 (anti-CD30) antibody”, in data set [3] (B-like HL murine xenograft model, FIG. 6), the “interaction with everolimus in delaying tumor growth in vivo” value is on record as “synergistic”. In data set [3], the complete responses result is given as “no complete responses”. Also, the “interaction with temsirolimus in delaying tumor growth in vivo” value in data set [5] (B-like HL murine xenograft model, FIG. 5) is on record as “synergistic”. In addition, the “Median Days to Triple Volume” value in data set [5] is 52 days.

B1: h1F6-mcF (conjugate, chains of the INN, looked up)
VH: QVQLVQSGAEVKKPGASVKVSCKASGYTFTNYGMNWVRQAPGQGLKWMGWINTYTGEPTYADAFKGRVTMTRDTSISTAYMELSRLRSDDTAVYYCARDYGDYGMDYWGQGTTVTVSS
VL: DIVMTQSPDSLAVSLGERATINCRASKSVSTSGYSFMHWYQQKPGQPPKLLIYLASNLESGVPDRFSGSGSGTDFTLTISSLQAEDVAVYYCQHSREVPWTFGQGTKVEIK
modifications: maleimidocaproyl-MMAF (mcF) drug conjugate
Regarding B1, the “interaction with the rapalogs temsirolimus, sirolimus, and everolimus” value in data set [1] is recorded as “synergistic”. In data set [2], the “interaction with the rapalogs temsirolimus and sirolimus” value is on record as “synergistic”.

B2: hBU12-mcF (conjugate, chains of the INN, looked up)
VH: QVQLQESGPGLVKPSQTLSLTCTVSGGSISTSGMGVGWIRQHPGKGLEWIGHIWWDDDKRYNPALKSRVTISVDTSKNQFSLKLSSVTAADTAVYYCARMELWSYYFDYWGQGTLVTVSS
VL: EIVLTQSPATLSLSPGERATLSCSASSSVSYMHWYQQKPGQAPRLLIYDTSKLASGIPARFSGSGSGTDFTLTISSLEPEDVAVYYCFQGSVYPFTFGQGTKLEIK
modifications: maleimidocaproyl-MMAF (mcF) drug conjugate
Take B2: in data set [6], the “interaction with the rapalogs temsirolimus and sirolimus” value is on record as “synergistic”.
